Data reported in ChEMBL document CHEMBL1201862, “PubChem BioAssay data set” (2004).
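Each compound was tested at five concentrations against cells in 96-well plates for 48 hours. GI50 = concentration required for 50% inhibition of growth.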 The source made the active and inactive calls. No stated cut-off is given here; in the data, active = GI50 up to about 1.1 µM and inactive = higher.

How the values were obtained:
Experiment in all cases: growth of human tumour cells (NCI), 48 h
786-0 = system: 786-0
A498 = system: A498
A549 = system: A549
ACHN = system: ACHN
BT-549 = system: BT-549
CAKI-1 = system: CAKI-1
CCRF-CEM = system: CCRF-CEM
COLO 205 = system: COLO 205
DU-145 = system: DU-145
EKVX = system: EKVX
HCC 2998 = system: HCC 2998
HCT-116 = system: HCT-116
HCT-15 = system: HCT-15
HL-60 = system: HL-60
HOP-62 = system: HOP-62
HOP-92 = system: HOP-92
HT-29 = system: HT-29
Hs-578T = system: Hs-578T
IGROV-1 = system: IGROV-1
K562 = system: K562
KM12 = system: KM12
LOX IMVI = system: LOX IMVI
M14 = system: M14
MCF7 = system: MCF7
MDA-MB-231 = system: MDA-MB-231
MDA-MB-435 = system: MDA-MB-435
MDA-N = system: MDA-N
MOLT-4 = system: MOLT-4
Malme-3M = system: Malme-3M
NCI-H226 = system: NCI-H226
NCI-H23 = system: NCI-H23
NCI-H460 = system: NCI-H460
NCI-H522 = system: NCI-H522
NCI/ADR-RES = system: NCI/ADR-RES
OVCAR-3 = system: OVCAR-3
OVCAR-4 = system: OVCAR-4
OVCAR-5 = system: OVCAR-5
OVCAR-8 = system: OVCAR-8
PC-3 = system: PC-3
RXF 393 = system: RXF 393
SF-268 = system: SF-268
SF-295 = system: SF-295
SF-539 = system: SF-539
SK-MEL-28 = system: SK-MEL-28
SK-MEL-2 = system: SK-MEL-2
SK-MEL-5 = system: SK-MEL-5
SK-OV-3 = system: SK-OV-3
SN12C = system: SN12C
SNB-19 = system: SNB-19
SR = system: SR
T47D = system: T47D
TK-10 = system: TK-10
U-251 = system: U-251
UACC-257 = system: UACC-257
UACC-62 = system: UACC-62
UO-31 = system: UO-31
SNB-75 = system: SNB-75
SW-620 = system: SW-620

CSC(SC)=C1CC(=O)Nc2ccccc2C1=O
GI50 (786-0): 45.6 µM (inactive) | GI50 (A498): > 100 µM (inactive) | GI50 (A549): > 100 µM (inactive) | GI50 (ACHN): > 100 µM (inactive) | GI50 (BT-549): 40.3 µM (inactive) | GI50 (CAKI-1): 34.1 µM (inactive) | GI50 (CCRF-CEM): 19.7 µM (inactive) | GI50 (COLO 205): 58.2 µM (inactive) | GI50 (DU-145): 91.6 µM (inactive) | GI50 (EKVX): > 100 µM (inactive) | GI50 (HCC 2998): > 100 µM (inactive) | GI50 (HCT-116): > 100 µM (inactive) | GI50 (HCT-15): 36.1 µM | GI50 (HL-60): 27.7 µM (inactive) | GI50 (HOP-62): > 100 µM (inactive) | GI50 (HOP-92): 22.2 µM (inactive) | GI50 (HT-29): > 100 µM (inactive) | GI50 (Hs-578T): 63.7 µM (inactive) | GI50 (IGROV-1): 35.9 µM (inactive) | GI50 (K562): 27.7 µM (inactive) | GI50 (KM12): > 100 µM (inactive) | GI50 (LOX IMVI): 17.4 µM (inactive) | GI50 (M14): 80.2 µM (inactive) | GI50 (MCF7): 47.6 µM (inactive) | GI50 (MDA-MB-231): > 100 µM (inactive) | GI50 (MDA-MB-435): 44.8 µM (inactive) | GI50 (MDA-N): 40.6 µM (inactive) | GI50 (MOLT-4): 26.1 µM (inactive) | GI50 (Malme-3M): 37.4 µM (inactive) | GI50 (NCI-H226): > 100 µM (inactive) | GI50 (NCI-H23): 29.9 µM (inactive) | GI50 (NCI-H460): > 100 µM (inactive) | GI50 (NCI-H522): 57 µM (inactive) | GI50 (NCI/ADR-RES): > 100 µM (inactive) | GI50 (OVCAR-3): 45 µM (inactive) | GI50 (OVCAR-4): > 100 µM (inactive) | GI50 (OVCAR-5): > 100 µM (inactive) | GI50 (OVCAR-8): > 100 µM (inactive) | GI50 (PC-3): > 100 µM (inactive) | GI50 (RXF 393): 18.6 µM (inactive) | GI50 (SF-268): > 100 µM (inactive) | GI50 (SF-295): > 100 µM (inactive) | GI50 (SF-539): 58.7 µM (inactive) | GI50 (SK-MEL-28): 36.8 µM (inactive) | GI50 (SK-MEL-2): 53.3 µM (inactive) | GI50 (SK-MEL-5): 51.5 µM (inactive) | GI50 (SK-OV-3): > 100 µM (inactive) | GI50 (SN12C): 63.1 µM (inactive) | GI50 (SNB-19): > 100 µM (inactive) | GI50 (SR): 27.5 µM (inactive) | GI50 (T47D): 29.9 µM (inactive) | GI50 (TK-10): 37 µM (inactive) | GI50 (U-251): 40.3 µM (inactive) | GI50 (UACC-257): 23.6 µM (inactive) | GI50 (UACC-62): 24.6 µM (inactive) | GI50 (UO-31): 55.1 µM (inactive)

O=S1(=O)N=C(SCc2ccccc2)N(c2ccccc2)c2ccncc21
GI50 (786-0): 40.8 µM (inactive) | GI50 (A498): 17.1 µM (inactive) | GI50 (A549): 32.6 µM (inactive) | GI50 (ACHN): 57.7 µM (inactive) | GI50 (BT-549): 25.5 µM (inactive) | GI50 (CAKI-1): 39.2 µM (inactive) | GI50 (CCRF-CEM): 28.5 µM (inactive) | GI50 (COLO 205): 19.7 µM (inactive) | GI50 (DU-145): 30.5 µM (inactive) | GI50 (EKVX): 24.4 µM (inactive) | GI50 (HCC 2998): 38.7 µM (inactive) | GI50 (HCT-116): 35.3 µM (inactive) | GI50 (HCT-15): 26.5 µM | GI50 (HL-60): 29.6 µM (inactive) | GI50 (HOP-62): 31.3 µM (inactive) | GI50 (HOP-92): 22.2 µM (inactive) | GI50 (HT-29): 43.9 µM (inactive) | GI50 (Hs-578T): 31.7 µM (inactive) | GI50 (K562): 29.9 µM (inactive) | GI50 (KM12): 41 µM (inactive) | GI50 (LOX IMVI): 53.7 µM (inactive) | GI50 (M14): 36.3 µM (inactive) | GI50 (MCF7): 31.2 µM (inactive) | GI50 (MDA-MB-231): 68.2 µM (inactive) | GI50 (MDA-MB-435): 41.5 µM (inactive) | GI50 (MDA-N): 27.4 µM (inactive) | GI50 (MOLT-4): 17.7 µM (inactive) | GI50 (Malme-3M): 49.5 µM (inactive) | GI50 (NCI-H226): 37.6 µM (inactive) | GI50 (NCI-H23): 29.6 µM (inactive) | GI50 (NCI-H460): 28.8 µM (inactive) | GI50 (NCI-H522): 18.7 µM (inactive) | GI50 (NCI/ADR-RES): 21.7 µM (inactive) | GI50 (OVCAR-3): 31.9 µM (inactive) | GI50 (OVCAR-4): 23.3 µM (inactive) | GI50 (OVCAR-5): > 100 µM (inactive) | GI50 (OVCAR-8): 47.3 µM (inactive) | GI50 (PC-3): 25.7 µM (inactive) | GI50 (RXF 393): 26.6 µM (inactive) | GI50 (SF-268): 36.6 µM (inactive) | GI50 (SF-295): 34 µM (inactive) | GI50 (SF-539): 66.2 µM (inactive) | GI50 (SK-MEL-28): 91.2 µM (inactive) | GI50 (SK-MEL-2): 34.3 µM (inactive) | GI50 (SK-MEL-5): 28.4 µM (inactive) | GI50 (SK-OV-3): 38.8 µM (inactive) | GI50 (SN12C): 42.2 µM (inactive) | GI50 (SNB-19): 99.8 µM (inactive) | GI50 (SNB-75): 24.7 µM (inactive) | GI50 (SR): 21.2 µM (inactive) | GI50 (SW-620): 56 µM (inactive) | GI50 (T47D): 29.2 µM (inactive) | GI50 (TK-10): 35.7 µM (inactive) | GI50 (U-251): 39.2 µM (inactive) | GI50 (UACC-257): 31.3 µM (inactive) | GI50 (UACC-62): 44.4 µM (inactive) | GI50 (UO-31): 3.83 µM (inactive)
